Experimental data as given in patent US9828374B2, “Substituted pyrazino[2,2-a]isoquinoline derivatives” (Hoffmann-La Roche Inc., priority 2014, dated 2017).

What was measured:
mouse TAAR1 = mouse TAAR1 (Mus musculus (Mouse), UniProt Q923Y8); test: Radioligand binding assay on mouse TAAR1; conditions: for Ki: mouse TAAR1, HEK-293 membranes, first value of the mouse/rat pair
Procedure: (§1) Construction of TAAR Expression Plasmids and Stably Transfected Cell Lines
(§2) For the construction of expression plasmids the coding sequences of human, rat and mouse TAAR 1 were amplified from genomic DNA essentially as described by Lindemann et al..
(§3) The Expand High Fidelity PCR System (Roche Diagnostics) was used with 1.5 mM Mg^2+ and purified PCR products were cloned into pCR2.1-TOPO cloning vector (Invitrogen) following the instructions of the manufacturer. PCR products were subcloned into the pIRESneo2 vector (BD Clontech, Palo Alto, Calif.), and expression vectors were sequence verified before introduction in cell lines.
(§4) HEK293 cells (ATCC # CRL-1573) were cultured essentially as described by Lindemann et al. (2005). For the generation of stably transfected cell lines HEK293 cells were transfected with the pIRESneo2 expression plasmids containing the TAAR coding sequences (described above) with Lipofectamine 2000 (Invitrogen) according to the instructions of the manufacturer, and 24 hrs post transfection the culture medium was supplemented with 1 mg/ml G418 (Sigma, Buchs, Switzerland). After a culture period of about 10 d clones were isolated, expanded and tested for responsiveness to trace amines (all compounds purchased from Sigma) with the cAMP Biotrak Enzyme immunoassay (EIA) System (Amersham) following the non-acetylation EIA procedure provided by the manufacturer.
Radioligand Binding Assay on Mouse TAAR1
(§5) Membrane Preparation and Radioligand Binding.
(§6) HEK-293 cells stably expressing mouse TAAR1 were maintained at 37° C. and 5% CO2 in DMEM high glucose medium, containing fetal calf serum (10%, heat inactivated for 30 min at 56° C.), penicillin/streptomycin (1%), and 375 μg/ml geneticin (Gibco). Cells were released from culture flasks using trypsin/EDTA, harvested, washed twice with ice-cold PBS (without Ca^2+ and Mg^2+), pelleted at 1,000 rpm for 5 min at 4° C., frozen and stored at −80° C. Frozen pellets were suspended in 20 ml HEPES-NaOH (20 mM, pH 7.4) containing 10 mM EDTA and homogenized with a Polytron (PT 6000, Kinematica) at 14,000 rpm for 20 s. The homogenate was centrifuged at 48,000×g for 30 min at 4° C. Subsequently, the supernatant was removed and discarded, and the pellet resuspended in 20 ml HEPES-NaOH (20 mM, pH 7.4) containing 0.1 mM EDTA using the Polytron (20 s at 14,000 rpm). This procedure was repeated and the final pellet resuspended in HEPES-NaOH containing 0.1 mM EDTA and homogenized using the Polytron. Typically, aliquots of 2 ml membrane portions were stored at −80° C. With each new membrane batch the dissociation constant (Kd) was determined via a saturation curve. […] Nonspecific binding was defined as the amount of ^3[H]-(S)-4-[(ethyl-phenyl-amino)-methyl]-4,5-dihydro-oxazol-2-ylamine bound in the presence of 10 μM unlabeled ligand. All compounds were tested at a broad range of concentrations (10 pM to 10 μM) in duplicates. […] The 96 deep well plates were incubated for 1 hr at 4° C. Incubations were terminated by rapid filtration through Unifilter-96 plates (Packard Instrument Company) and glass filters GF/C (Perkin Elmer) presoaked for 1 hr in polyethylenimine (0.3%) and washed 3 times with 1 ml of cold binding buffer. After addition of 45 μl of Microscint 40 (PerkinElmer) the Unifilter-96 plate was sealed and after 1 hr the radioactivity counted using a TopCount Microplate Scintillation Counter (Packard Instrument Company).

rat TAAR1 = rat TAAR1 (Rattus norvegicus (Rat), UniProt Q923Y9); test: Radioligand binding assay on rat TAAR1; conditions: for Ki: rat TAAR1, HEK-293 membranes, second value of the mouse/rat pair
Procedure: as §1, §2, §3, §4
Radioligand Binding Assay on Rat TAAR1
as §5
as §6, with “rat” for “mouse”, “[H]-(S)-4-[(ethyl-phenyl-amino)-methyl]-4,5-dihydro-oxazol-2-ylamine” for “^3[H]-(S)-4-[(ethyl-phenyl-amino)-methyl]-4,5-dihydro-oxazol-2-ylamine”, “[…]” for “pM”

mouse TAAR1, sequence (Q923Y8 whole entry): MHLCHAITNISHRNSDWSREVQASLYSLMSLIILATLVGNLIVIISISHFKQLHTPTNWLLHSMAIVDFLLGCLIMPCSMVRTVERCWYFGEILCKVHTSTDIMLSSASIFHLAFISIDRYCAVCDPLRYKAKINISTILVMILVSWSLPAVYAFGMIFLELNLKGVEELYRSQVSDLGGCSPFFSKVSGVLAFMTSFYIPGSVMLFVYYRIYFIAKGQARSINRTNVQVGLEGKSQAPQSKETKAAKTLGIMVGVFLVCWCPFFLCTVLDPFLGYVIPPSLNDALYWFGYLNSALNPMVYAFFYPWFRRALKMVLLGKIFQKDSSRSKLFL
rat TAAR1, sequence (Q923Y9 whole entry): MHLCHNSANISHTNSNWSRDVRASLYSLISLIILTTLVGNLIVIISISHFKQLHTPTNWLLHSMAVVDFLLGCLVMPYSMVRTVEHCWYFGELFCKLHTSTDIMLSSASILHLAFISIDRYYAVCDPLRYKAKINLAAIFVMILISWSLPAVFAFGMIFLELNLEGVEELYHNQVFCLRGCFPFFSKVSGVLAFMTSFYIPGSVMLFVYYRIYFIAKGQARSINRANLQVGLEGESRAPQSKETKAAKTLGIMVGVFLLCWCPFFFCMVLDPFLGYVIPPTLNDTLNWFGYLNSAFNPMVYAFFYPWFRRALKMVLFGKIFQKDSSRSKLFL

| Kd (mouse TAAR1; mouse TAAR1 membranes, saturation curve, usual value, read-out: dissociation constant (Kd) of the radioligand) [nM] | Kd (rat TAAR1; rat TAAR1 membranes, saturation curve, usual value, read-out: dissociation constant (Kd) of the radioligand) [nM] | Ki (mouse TAAR1) [µM] | Ki (rat TAAR1) [µM] | Compound |
| --- | --- | --- | --- | --- |
| ~0.7 | ~2.3 |  |  | CCN(C[C@H]1COC(N)=N1)c1ccccc1 [^3[H]-(S)-4-[(ethyl-phenyl-amino)-methyl]-4,5-dihydro-oxazol-2-ylamine, reference compound] |
|  |  | 0.299 | > 1.5 | COc1ccc(NC(=O)c2ccc3c(c2)CCN2CCNC[C@@H]32)cn1 [Example 45, (11bR)-N-(6-methoxy-3-pyridyl)-2,3,4,6,7,11b-hexahydro-1H-pyrazino[2,1-a]isoquinoline-9-carboxamide] |
|  |  | 0.222 | 0.157 | Cc1cc(C(=O)Nc2ccc3c(c2)CCN2CCNC[C@@H]32)nc(C(F)(F)F)n1 [Example 38, (R)-N-(2,3,4,6,7,11b-hexahydro-1H-pyrazino[2,1-a]isoquinolin-9-yl)-6-methyl-2-(trifluoromethyl)pyrimidine-4-carboxamide] |
|  |  | 0.0025 | 0.0012 | O=C(Nc1ccc(C(F)(F)F)cc1)Nc1ccc2c(c1)CCN1CCNC[C@@H]21 [Example 35, (R)-1-(2,3,4,6,7,11b-hexahydro-1H-pyrazino[2,1-a]isoquinolin-9-yl)-3-(4-(trifluoromethyl)phenyl)urea] |
|  |  | 0.219 | 1.98 | FC(F)(F)c1cnc(Nc2ccc3c(c2)CCN2CCNC[C@H]32)cn1 [Example 12, (11bS)-N-[5-(trifluoromethyl)pyrazin-2-yl]-2,3,4,6,7,11b-hexahydro-1H-pyrazino[2,1-a]isoquinolin-9-amine] |
|  |  | 0.0439 | 0.0092 | COc1cc(Nc2ccc3c(c2)CCN2CCNC[C@@H]32)nc(C(F)(F)F)n1 [Example 18, (11bR)-N-[6-methoxy-2-(trifluoromethyl)pyrimidin-4-yl]-2,3,4,6,7,11b-hexahydro-1H-pyrazino[2,1-a]isoquinolin-9-amine] |
|  |  | 0.0599 | 0.0471 | FC(F)(F)c1ccnc(Nc2ccc3c(c2)CCN2CCNC[C@@H]32)n1 [Example 24, (11bR)-N-[4-(trifluoromethyl)pyrimidin-2-yl]-2,3,4,6,7,11b-hexahydro-1H-pyrazino[2,1-a]isoquinolin-9-amine] |
|  |  | 0.0329 | 0.0356 | FC(F)(F)c1cnc(Nc2ccc3c(c2)CCN2CCNC[C@@H]32)cn1 [Example 7, (11bR)-N-[5-(trifluoromethyl)pyrazin-2-yl]-2,3,4,6,7,11b-hexahydro-1H-pyrazino[2,1-a]isoquinolin-9-amine] |
|  |  | 0.0374 | 0.0195 | FC(F)(F)c1cnc(Nc2ccc3c(c2)CCN2CCNC[C@@H]32)nc1 [Example 6, (11bR)-N-[5-(trifluoromethyl)pyrimidin-2-yl]-2,3,4,6,7,11b-hexahydro-1H-pyrazino[2,1-a]isoquinolin-9-amine] |
|  |  | 0.0078 | 0.0119 | FC(F)(F)COc1cnc(Nc2ccc3c(c2)CCN2CCNC[C@@H]32)nc1 [Example 13, (R)-N-(5-(2,2,2-trifluoroethoxy)pyrimidin-2-yl)-2,3,4,6,7,11b-hexahydro-1H-pyrazino[2,1-a]isoquinolin-9-amine] |
|  |  | 0.444 | 7.63 | O=C(Nc1ccc2c(c1F)CCN1CCNC[C@@H]21)c1ccnc(C(F)(F)F)c1 [Example 32, N-[(11bR)-8-fluoro-2,3,4,6,7,11b-hexahydro-1H-pyrazino[2,1-a]isoquinolin-9-yl]-2-(trifluoromethyl)pyridine-4-carboxamide] |
|  |  | 0.175 | 1.5 | O=C(Nc1cc2c(cc1F)[C@@H]1CNCCN1CC2)c1ccnc(C(F)(F)F)c1 [Example 16, N-[(11bR)-10-fluoro-2,3,4,6,7,11b-hexahydro-1H-pyrazino[2,1-a]isoquinolin-9-yl]-2-(trifluoromethyl)pyridine-4-carboxamide] |

| Compound | Kd (mouse TAAR1; mouse TAAR1 membranes, saturation curve, usual value, read-out: dissociation constant (Kd) of the radioligand) [nM] | Kd (rat TAAR1; rat TAAR1 membranes, saturation curve, usual value, read-out: dissociation constant (Kd) of the radioligand) [nM] | Ki (mouse TAAR1) [µM] | Ki (rat TAAR1) [µM] |
| --- | --- | --- | --- | --- |
| O=C(Nc1ccc(Cl)nc1)c1ccc2c(c1)CCN1CCNC[C@@H]21 [Example 42, (11bR)-N-(6-chloro-3-pyridyl)-2,3,4,6,7,11b-hexahydro-1H-pyrazino[2,1-a]isoquinoline-9-carboxamide] |  |  | 0.0395 | 0.682 |
| c1cnc(Nc2ccc3c(c2)CCN2CCNC[C@@H]32)nc1 [Example 22, (11bR)-N-pyrimidin-2-yl-2,3,4,6,7,11b-hexahydro-1H-pyrazino[2,1-a]isoquinolin-9-amine] |  |  | 0.537 | 3.92 |
| FC(F)(F)c1nccc(Nc2ccc3c(c2)CCN2CCNC[C@@H]32)n1 [Example 5, (11bR)-N-[2-(trifluoromethyl)pyrimidin-4-yl]-2,3,4,6,7,11b-hexahydro-1H-pyrazino[2,1-a]isoquinolin-9-amine] |  |  | 0.0354 | 0.0151 |
| Nc1ccc2c(c1)CCN1CCNC[C@@H]21 [Example 47, (11bR)-2,3,4,6,7,11b-hexahydro-1H-pyrazino[2,1-a]isoquinolin-9-amine] |  |  | 1.1 | > 1.5 |
| O=C(Nc1cnc(Cl)nc1)c1ccc2c(c1)CCN1CCNC[C@@H]21 [Example 46, (11bR)-N-(2-chloropyrimidin-5-yl)-2,3,4,6,7,11b-hexahydro-1H-pyrazino[2,1-a]isoquinoline-9-carboxamide] |  |  | 0.309 | > 1.5 |
| CCc1ccc2c(c1)CCN1CCNC[C@@H]21 [Example 27, (11bR)-9-ethyl-2,3,4,6,7,11b-hexahydro-1H-pyrazino[2,1-a]isoquinoline] |  |  | 0.266 | 0.288 |
| c1cc2c(cc1C1CC1)CCN1CCNC[C@@H]21 [Example 29, (11bR)-9-cyclopropyl-2,3,4,6,7,11b-hexahydro-1H-pyrazino[2,1-a]isoquinoline] |  |  | 1.81 | 0.815 |
| c1ccc2c(c1)CCN1CCNC[C@@H]21 [Example 15, (11bR)-2,3,4,6,7,11b-hexahydro-1H-pyrazino[2,1-a]isoquinoline] |  |  | 0.0605 | 0.248 |
| O=C(Nc1ccc2c(c1)CCN1CCNC[C@H]21)c1cnc(C(F)(F)F)nc1 [Example 10, N-[(11bS)-2,3,4,6,7,11b-hexahydro-1H-pyrazino[2,1-a]isoquinolin-9-yl]-2-(trifluoromethyl)pyrimidine-5-carboxamide] |  |  | 0.189 | 0.191 |
| Fc1cc2c(cc1Nc1ncc(C(F)(F)F)cn1)CCN1CCNC[C@@H]21 [Example 17, (11bR)-10-fluoro-N-[5-(trifluoromethyl)pyrimidin-2-yl]-2,3,4,6,7,11b-hexahydro-1H-pyrazino[2,1-a]isoquinolin-9-amine] |  |  | 0.261 | 0.623 |
